From patent US20220168331A1, “PRR-Activating and MicroRNA-Inhibiting Molecules and Methods of Using Same” (Duke University, priority 2019, published 2022)
“Also recorded” adds a separate entry of the source. {PPP} = triphosphate

Columns and labels:
[1] = system: Mouse macrophage cells; experiment: PRR tolerance: IFN-β production by pretreated macrophages after secondary treatment; type: cell-based; conditions: for IFN-β production after secondary treatment, cells pretreated with the substance versus control: pretreatment overnight, then cytoplasmic PRR agonists, FIG. 9B; for IFN-β production, cells pre-treated with mixture of 1-MT and CH223191 versus DMSO: substance given as mixture of IDO inhibitor and AHR inhibitor, FIG. 9
Method: (§1) In addition to prior activation of MDA5, prior activation of TLR4, RIG-I, and STING induced self- and cross-tolerance of same and different PRRs.
(§2) Mouse BM-DCs were treated with pIC/DF complex (cytoplasmic MDA5), ICR4/DF complex (cytoplasmic RIG-I), 2′3′-cGAMP (cytoplasmic STING), or transfection agent DF alone (FIG. 9A). Mouse macrophage cells were treated with dH2O (control), LPS (surface TLR4), or HMGB1 (surface TLR4), followed by treatment with DMSO (control) or mixture of CH223191 (AHR inhibitor) and 1-MT (IDO inhibitor) (FIG. 9B). After overnight incubation, the cells were replenished with fresh culture media and treated with indicated cytoplasmic PRR agonists. Levels of IFN-β production were measured using ELISA. □ P<0.05.

[2] = system: B16-F10 melanoma cell line; experiment: PRR tolerance: IFN-β production by pretreated B16-F10 cells after secondary treatment; type: cell-based, mouse; conditions: FIG. 8; for IFN-β production, cells pre-treated with mixture of 1-MT and CH223191 versus DMSO: substance given as mixture of IDO inhibitor and AHR inhibitor; for IFN-β production after secondary treatment, cells pretreated with the substance versus control: pretreatment at sublethal dose overnight, then pIC/DF complex 0.6 μg/ml
Method: as §1
(§3) In particular, mouse pancreatic cancer cell line PANC-02 and melanoma cell line B16-F10 were pretreated with dH2O, MDA5 agonist (pIC/DF complex), or TLR4 agonist (HMGB1) in the presence of dimethyl sulfoxide (DMSO) (vehicle control), CH223191 (AHR inhibitor), 1-MT (IDO inhibitor), or L-Kyn (AHR activator). After overnight incubation, the cells were replenished with fresh culture media and treated with pIC/DF complex (0.6 μg/ml). One day after second treatment, IFN-β production was measured using ELISA. (n=3).

[3] = system: PANC-02 mouse pancreatic cancer cell line; experiment: PRR tolerance: IFN-β production by pretreated PANC-02 cells after secondary treatment; type: cell-based; conditions: FIG. 8; for IFN-β production, cells pre-treated with mixture of 1-MT and CH223191 versus DMSO: substance given as mixture of IDO inhibitor and AHR inhibitor; for IFN-β production after secondary treatment, cells pretreated with the substance versus control: pretreatment at sublethal dose overnight, then pIC/DF complex 0.6 μg/ml
Method: as §1, §3

[4] = system: B16-F10 mouse melanoma cells; experiment: Cytotoxicity (MTT assay) in B16-F10 cells; type: cell-based; conditions: ICR4-liposome complex 0.6 μg/ml, overnight incubation
Method: (§4) B16-F0 and B16-F10 mouse melanoma cells lines are originated from the same parental cell line but they have different metastatic ability. B16-F0 cell line has no or marginal metastatic ability but B16-F10 cell line has potent metastatic ability. B16-F0 and B16-F10 cells (1×10^4) were treated with RIG-I agonist ICR4-liposome complex (0.6 μg/ml). After overnight incubation, cytotoxicity and IFN-β production by the cells were measured using MTT assay and ELISA, respectively. […] Tumor suppressor proteins, such as programmed cell death 4 (PDCD4) and phosphatase and tensin homolog (PTEN), and pre-miR-21 levels in B16-F0 and B16-F10 cells were measured using real-time qPCR. […] It was hypothisized that miR-21 would interfere with antitumor effects of RIG-I agonists in B16-F10 melanoma cells.

[5] = system: B16-F0 mouse melanoma cells; experiment: IFN-β production (ELISA) by B16-F0 cells; type: cell-based; conditions: for IFN-β production after first and second transfection: 12.5 nM, DharmaFECT, one day after first and second transfection
Method: as §4
B16-F0 mouse melanoma cells were transfected with ICR4, RigantmiR-21, mutant RigantmiR-21, or anti-miR-21 at 12.5 nM using DharmaFECT (DF). After overnight incubation, the cells were replenished with fresh culture media, followed by another transfection with the same dose of RNAs. One day after the first and second transfection, IFN-β production by these cells were determined using ELSIA.
(§5) B16-F0 mouse melanoma cells or bone marrow-derived dendritic cells (BM-DCs) were transfected once (x1) or twice (x2) with a complex of polyI:C (pIC) (0.6 μg/ml) and transfection agent jet-PEI. IFN-β production by the cells one day after each transfection was determined using ELISA.

[6] = system: mouse pancreatic, adenocarcinoma, and sarcoma cells; experiment: Antitumor activities in mouse pancreatic cancer and sarcoma cells (overall statements); type: cell-based; conditions: FIGS. 4A-4C
Method: The antitumor effects of RigantmiR-21 are not limited to melanoma cells. KPC-4839 (mouse pancreatic ductal adenocarcinoma), PANC-02 (mouse pancreatic adenocarcinoma) and mouse sarcoma cell line cells were transfected with indicated ICR4, RigantmiR-21, mutant RigantmiR-21, or anti-miR-21 (0.6 μg/ml) using DharmaFECT (DF). After overnight incubation, IFN-β production by these cells was determined using ELSIA. (n=3). As shown in FIGS. 4A-4C, RigantmiR-21 treatments induced cell death and IFN-β production by mouse pancreatic, adenocarcinoma, and sarcoma cells that are also resistant to RIG-I agonist ICR4.

[7] = system: Human and murine cancer cell lines and human normal cells; experiment: Cytotoxicity (MTT assay) in cancer cell lines and normal cells; type: cell-based; conditions: transfected 0.8 mg/ml, 72 h after treatment, FIG. 2
Method: Human and murine cancer cell lines and human normal cells in 96-well plate (7000 cells/well) were transfected with RIG-I agonist 5′ppp ssRNA ICR4 ([…]). Cells were harvested 72 h after treatment and analyzed for cytotoxicity using MTT assay. N=3. *, P<0.05.

[8] = system: B16-F10 mouse melanoma cells; experiment: IFN-β production (ELISA) by B16-F10 cells; type: cell-based; conditions: for IFN-β production compared to ICR2 and ICR2AS conjugated with seed mutant anti-miR-21: FIG. 6B, n=3
Method: as §4
To improve therapeutic effects of RIG-I agonists in B16-F10 cells, we designed and generated a novel RIG-I-activating RNA molecule (named RigantmiR-21) that is composed of a RIG-I-activating RNA structure (ICR4: 5′ppp-containg double stem-loop RNA) and a complementary sequence to mature miR-21. B16-F10 melanoma cells were transfected once or twice with RigantmiR-21, mutant RigantmiR-21, anti-miR-21, or ICR4 (0.6 μg/ml) using liposomal transfection agent DharmaFECT (DF). The expression of miR-21 target genes was determined using qPCR. IFN-β production was determined using ELISA. […] Anti-miR-21, ICR4, and RigantmiR-21 RNAs were complexed with in vivo transfection agent jet-PEI. Jet-PEI alone or RNA-jet-PEI complexes (25 μg) were injected thrice intratumorally into B16-F10 melanoma-bearing immunocompetent mice. (n=6).
Additionally, conjugation of anti-miR-21 improved the ability of other types of RIG-I agonists, such as ICR2 and ICR2AS^4 (sequences shown in FIG. 6A) to induce IFN-β production by cancer cells.

[9] = system: Mouse BM-DCs; experiment: PRR tolerance: IFN-β production by pretreated BM-DCs after secondary treatment; type: cell-based; conditions: pretreatment overnight, then cytoplasmic PRR agonists; FIG. 9A
Method: as §1, §2

[10] = system: B16-F0 mouse melanoma cells; experiment: Cytotoxicity (MTT assay) in B16-F0 cells; type: cell-based; conditions: for cytotoxic effects after repeated treatments: two transfections at various concentrations, DharmaFECT, MTT three days after first transfection
Method: as §4
B16-F0 mouse melanoma cells were transfected with ICR4, RigantmiR-21, mutant RigantmiR-21, or anti-miR-21 at various concentrations using DharmaFECT (DF). After overnight incubation, the cells were replenished with fresh culture media, followed by another transfection with the same dose of RNAs. Three days after the first transfection, cytotoxicity levels were measured using MTT assay.

[11] = system: bone marrow-derived dendritic cells (BM-DCs); experiment: IFN-β production (ELISA) by BM-DCs after single or repeated pIC/jet-PEI transfection; type: cell-based, mouse; conditions: pIC 0.6 μg/ml with jet-PEI, transfected once or twice, one day after each transfection
Method: as §5

[12] = system: B16-F10 melanoma-bearing mice; experiment: Anticancer response (survival) after single or multiple intratumoral pIC/jet-PEI injections; type: in vivo, mouse; conditions: pIC/jet-PEI complex 25 μg intratumorally once or thrice
[13] = system: 4T1 mouse breast cancer cells, B16-F10 mouse melanoma cells, 403688 mouse sarcoma cells, and WM266.4 human melanoma cells; experiment: IFN-β production (ELISA) by different cancer cells after first and second transfection with RIG-I agonists; type: cell-based; conditions: DharmaFECT, one day after first and second transfection; FIG. 11
Method: 4T1 mouse breast cancer cells, B16-F10 mouse melanoma cells, 403688 mouse sarcoma cells, and WM266.4 human melanoma cells were transfected with indicated RIG-I agonists using liposomal transfection agent DharmaFECT (DF). After overnight incubation, the cells was replenished with fresh culture media, followed by another transfection with the same RIG-I agonists. One day after first and second transfection IFN-β production by these cells were determined using ELSIA.

[14] = ICR4-liposome complex 0.6 μg/ml, overnight incubation, ELISA

Molecule: lipopolysaccharide [LPS]
- IFN-β production after secondary treatment, cells pretreated with the substance versus control [1]: significantly decreased

Molecule: Cc1ccccc1N=Nc1ccc(NC(=O)c2ccnn2C)c(C)c1 [CH223191]
- IFN-β production, cells pre-treated with mixture of 1-MT and CH223191 versus DMSO [2]: significantly increased
- IFN-β production, cells pre-treated with mixture of 1-MT and CH223191 versus DMSO [3]: significantly increased
- IFN-β production, cells pre-treated with mixture of 1-MT and CH223191 versus DMSO [1]: significantly increased

Molecule: ICR4: immunogenic cell-killing RNA RIG-I agonist, 5′ppp-containing double stem-loop ssRNA; SEQ ID NO: 1 (GGAUGCGGUACCUGACAGCAUCCUAAACUCAUGGUCCAUGUUUGUCCAUGGACCA; RNA, 5' {PPP}, backbone not given here; double stem-loop single-stranded RNA) [reference compound]
- cytotoxicity (cell death) [4]: underwent cell death and IFN-β production
- IFN-β production after first and second transfection ([5]; ELISA): significantly reduced and not
- IFN-β production [5, 14]: underwent cell death and IFN-β production
- response of the cells to the RIG-I agonist (resistance) [6]: resistant
- % cytotoxicity, cancer versus normal cells [7]: differentially sensitive; also recorded: Differential sensitivity
- IFN-β production [8, 14]: underwent cell death and IFN-β production
- IFN-β production after secondary treatment, cells pretreated with the substance versus control [9]: significantly decreased
- sensitivity to antitumor effects, B16-F0 cell line compared with B16-F10 cell line ([10]; 0.6 μg/ml, overnight, FIGS. 1A and 1B): much more sensitive
- cytotoxicity (cell death) ([10]; ICR4-liposome complex 0.6 μg/ml, overnight incubation, MTT assay): underwent cell death and IFN-β production
- cytotoxic effects after repeated treatments [10]: gradually augmented

Molecule: ICR2AS-anti-miR-21: RIG-I agonist ICR2AS conjugated with anti-miR-21; SEQ ID NO: 9 (GGAUGCUGUCAGGUACCGCAUCCUCAACAUCAGUCUGAUAAGCUA; listed as RNA, further chemistry not given here)
- IFN-β production compared to ICR2 and ICR2AS conjugated with seed mutant anti-miR-21 [8]: increased induction

Molecule: Nc1ccccc1C(=O)CC(N)C(=O)O (stereo not shown) [Kyn, kynurenine]
- IFN-β production after secondary treatment, cells pretreated with the substance versus control [2]: significantly decreased
- IFN-β production after secondary treatment, cells pretreated with the substance versus control [3]: significantly decreased

Molecule: ICR2-anti-miR-21: RIG-I agonist ICR2 conjugated with anti-miR-21; SEQ ID NO: 7 (GGAUGCGGUACCUGACAGCAUCCUCAACAUCAGUCUGAUAAGCUA; listed as RNA, further chemistry not given here)
- IFN-β production compared to ICR2 and ICR2AS conjugated with seed mutant anti-miR-21 [8]: increased induction

Molecule: Nc1nc2c(ncn2[C@@H]2O[C@@H]3COP(=O)(O)O[C@H]4[C@@H](O)[C@H](n5cnc6c(N)ncnc65)O[C@@H]4COP(=O)(O)O[C@@H]2[C@@H]3O)c(=O)[nH]1 [2′3′-cGAMP]
- IFN-β production after secondary treatment, cells pretreated with the substance versus control [9]: significantly decreased

Molecule: Cn1cc(C[C@H](N)C(=O)O)c2ccccc21 [1-MT, 1-methyl tryptophan]
- IFN-β production, cells pre-treated with mixture of 1-MT and CH223191 versus DMSO [2]: significantly increased
- IFN-β production, cells pre-treated with mixture of 1-MT and CH223191 versus DMSO [3]: significantly increased
- IFN-β production, cells pre-treated with mixture of 1-MT and CH223191 versus DMSO [1]: significantly increased

Molecule: polyinosinic-polycytidylic acid [polyI:C]
- IFN-β production after secondary treatment, cells pretreated with the substance versus control [2]: significantly decreased
- IFN-β production after secondary treatment, cells pretreated with the substance versus control [3]: significantly decreased
- IFN-β production after retreatment ([5]; pIC 0.6 μg/ml with jet-PEI, transfected once or twice, one day after each transfection): reduced
- IFN-β production after retreatment [11]: reduced
- anticancer responses (survival), multiple treatments compared to single treatment [12]: did not significantly enhance
- IFN-β production after secondary treatment, cells pretreated with the substance versus control [9]: significantly decreased

B1: mutant RigantmiR-21: composed of ICR4 and a non-complementary sequence to miR-21; SEQ ID NO: 3 (nucleic acid)
chain: GGAUGCGGUACCUGACAGCAUCUUGAAAUAAGGACUGAUGCUCAACAUCAGUCUGACACUCCA
modifications: chemistry not fully specified
- IFN-β production after first and second transfection ([5]; ELISA): significantly reduced
- cytotoxic effects after repeated treatments [10]: gradually augmented

B2: high mobility group box 1 (protein, UniProt P09429 1-215, looked up)
High mobility group protein B1: MGKGDPKKPRGKMSSYAFFVQTCREEHKKKHPDASVNFSEFSKKCSERWKTMSAKEKGKFEDMAKADKARYEREMKTYIPPKGETKKKFKDPNAPKRPPSAFFLFCSEYRPKIKGEHPGLSIGDVAKKLGEMWNNTAADDKQPYEKKAAKLKEKYEKDIAAYRAKGKPDAAKKGVVKAEKSKKKKEEEEDEEDEEDEEEEEDEEDEDEEEDDDDE
notes: TLR4 agonist protein
- IFN-β production after secondary treatment, cells pretreated with the substance versus control [2]: significantly decreased
- IFN-β production after secondary treatment, cells pretreated with the substance versus control [3]: significantly decreased
- IFN-β production after secondary treatment, cells pretreated with the substance versus control [1]: significantly decreased

B3: RigantmiR-146a: nucleic acid molecule comprising a RIG-I agonist sequence and a miR-146a antagonist sequence; SEQ ID NO: 4 (nucleic acid)
chain: GGAUGCGGUACCUGACAGCAUCCUCCCCCGCAUUCCAUGGUCAACCCAUGGAAUUCAGUUCUCA
modifications: listed as RNA, chemistry not given here
- IFN-β production by different cancer cells [13]: differentially induce
